# Measured values as given in US11001590B2, “Pyrazolopyrimidine derivatives” (BAYER ANIMAL HEALTH GMBH, priority 2016, dated 2021).
# Tests used:
# [1] = molecular target: C. elegans Slo-1a (Caenorhabditis elegans, UniProt Q95V25); experiment: In vitro assay 1: C. elegans Slo-1a, action at a recombinant C. elegans CHO cell line (membrane potential measurement); conditions: for pE50: CHO cells expressing C. elegans Slo-1a, voltage sensitive dye, FLIPR Tetra, negative decadic logarithm of EC50
# [2] = log P by HPLC on reversed phase columns (Method L0; [a] acidic, [b] neutral range); conditions: for log P: HPLC on reversed phase columns (Method L0); for logP (Method L0) [a]: HPLC on reversed phase columns, Method L0, [a] acidic range
# Protocol: Calibration was done with straight-chain alkan-2-ones (with 3 to 16 carbon atoms) with known log P values (measurement of log P values using retention times with linear interpolation between successive alkanones). Lambda-max-values were determined using UV-spectra from 200 nm to 400 nm and the peak values of the chromatographic signals.
# [3] = last column of Table 1, column head not shown
# Sequence of C. elegans Slo-1a (Q95V25 whole entry): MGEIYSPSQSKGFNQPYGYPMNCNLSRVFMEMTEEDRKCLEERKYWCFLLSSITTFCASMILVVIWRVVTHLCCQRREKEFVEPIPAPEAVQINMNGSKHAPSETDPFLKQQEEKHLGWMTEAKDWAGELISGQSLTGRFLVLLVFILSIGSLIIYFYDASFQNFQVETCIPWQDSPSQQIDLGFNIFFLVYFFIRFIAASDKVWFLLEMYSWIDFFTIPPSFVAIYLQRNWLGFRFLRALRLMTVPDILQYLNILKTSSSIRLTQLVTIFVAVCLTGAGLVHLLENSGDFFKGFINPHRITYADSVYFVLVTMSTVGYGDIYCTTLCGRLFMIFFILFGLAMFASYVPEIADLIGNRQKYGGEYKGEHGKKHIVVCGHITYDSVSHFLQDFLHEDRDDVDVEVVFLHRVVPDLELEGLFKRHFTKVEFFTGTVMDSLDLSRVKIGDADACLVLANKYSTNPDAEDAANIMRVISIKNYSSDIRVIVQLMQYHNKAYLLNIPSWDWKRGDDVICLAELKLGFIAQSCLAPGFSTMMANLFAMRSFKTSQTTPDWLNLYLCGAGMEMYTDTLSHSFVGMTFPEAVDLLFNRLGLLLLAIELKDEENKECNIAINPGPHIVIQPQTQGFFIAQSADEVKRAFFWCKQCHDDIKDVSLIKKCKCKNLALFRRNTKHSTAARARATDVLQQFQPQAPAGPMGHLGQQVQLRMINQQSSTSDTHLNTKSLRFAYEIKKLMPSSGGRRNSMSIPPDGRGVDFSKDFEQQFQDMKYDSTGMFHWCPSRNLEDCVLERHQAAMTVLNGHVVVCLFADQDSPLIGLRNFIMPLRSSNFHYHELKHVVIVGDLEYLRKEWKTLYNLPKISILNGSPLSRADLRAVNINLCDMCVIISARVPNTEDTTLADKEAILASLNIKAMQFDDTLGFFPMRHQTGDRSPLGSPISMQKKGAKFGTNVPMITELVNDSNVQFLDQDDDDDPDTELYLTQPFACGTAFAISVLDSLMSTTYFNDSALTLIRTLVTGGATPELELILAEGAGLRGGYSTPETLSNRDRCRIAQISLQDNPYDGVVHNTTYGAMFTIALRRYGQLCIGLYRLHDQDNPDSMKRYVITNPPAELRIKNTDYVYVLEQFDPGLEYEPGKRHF
smiles,measurement,setting,value
Cc1nn2c(N(C)CC[S+](C)[O-])c(C(=O)NC3CCOc4ccccc43)cnc2c1-c1cc(Cl)cc(Cl)c1 (mixture of isomers) [Example 540],pE50,[1],7.7
same,log P,[2]; [3],2.88
Cc1ccc2c(c1)C(NC(=O)c1cnc3c(-c4c(F)cccc4Cl)c(C)nn3c1C(C)C)CCO2 (racemic) [Example 237],pE50,[1],7.5
same,log P,[2],4.67
Cc1nn2c(C(C)C)c(C(=O)NC3CCOc4ccc(F)cc43)cnc2c1-c1c(F)cccc1Cl (racemic) [Example 254],pE50,[1],8.1
same,log P,[2],4.45
Cc1nn2c(C(C)C)c(C(=O)NC3CCc4ccccc43)cnc2c1-c1cccc(C(F)(F)F)c1 (centres unmarked) [Example 1],EC50,[1],39.8 nM
same,chromatographic logP,[2],5.29
Cc1nn2c(C(C)C)c(C(=O)NC3CCCc4ccccc43)cnc2c1-c1cccc(C(F)(F)F)c1 (centres unmarked) [Example 2],EC50,[1],31.6 nM
same,chromatographic logP,[2],5.59
Cc1ccc2c(c1)[C@@H](NC(=O)c1cnc3c(-c4cccc(C(F)(F)F)c4)c(C)nn3c1C(C)C)CCC2 [Example 5],pE50,[1],7.2
same,logP (Method L0) [a],[2],5.99
Cc1nn2c(C(C)C)c(C(=O)N[C@H]3CCCc4ccccc43)cnc2c1-c1cc(Cl)cc(Cl)c1 [Example 7],EC50,[1],20 nM
same,chromatographic logP,[2],6.39
Cc1nn2c(C)c(C(=O)N[C@H]3CCCc4ccccc43)cnc2c1-c1cccc(Cl)c1 [Example 46],EC50,[1],251 nM
same,chromatographic logP,[2],4.42
CC(C)c1c(C(=O)N[C@H]2CCc3ccccc32)cnc2c(-c3cccc(Cl)c3)c(C(F)(F)F)nn12 [Example 48],EC50,[1],251 nM
same,chromatographic logP,[2],5.46
CC(C)c1c(C(=O)N[C@H]2CCCc3ccccc32)cnc2c(-c3cccc(C(F)(F)F)c3)c(C(F)(F)F)nn12 [Example 56],EC50,[1],398 nM
same,chromatographic logP,[2],5.8
Cc1nn2c(C)c(C(=O)N[C@H]3CCc4ccccc43)cnc2c1-c1cccc(Cl)c1 [Example 59],EC50,[1],79.4 nM
same,chromatographic logP,[2],4.12
Cc1nn2c(C)c(C(=O)N[C@H]3CCc4ccccc43)cnc2c1-c1cc(Cl)cc(Cl)c1 [Example 60],EC50,[1],7940 nM
same,chromatographic logP,[2],4.96
Cc1nn2c(C)c(C(=O)N[C@H]3CCCc4ccccc43)cnc2c1-c1cc(Cl)cc(Cl)c1 [Example 61],EC50,[1],6310 nM
same,chromatographic logP,[2],5.29
Cc1nn2cc(C(=O)N[C@H]3CCc4ccccc43)cnc2c1-c1ccccc1Cl [Example 62],EC50,[1],2000 nM
same,chromatographic logP,[2],3.52
CC(C)c1c(C(=O)N[C@H]2CCc3ccccc32)cnc2c(-c3cccc(C(F)(F)F)c3)c(Cl)nn12 [Example 70],EC50,[1],31.6 nM
same,chromatographic logP,[2],5.55
CC(C)c1c(C(=O)N[C@H]2CCCc3ccccc32)cnc2c(-c3cccc(C(F)(F)F)c3)c(Cl)nn12 [Example 72],EC50,[1],79.4 nM
same,chromatographic logP,[2],5.85
CC(C)c1c(C(=O)N[C@H]2CCc3ccccc32)cnc2c(-c3ccc(Cl)cc3)c(Cl)nn12 [Example 73],EC50,[1],158 nM
same,chromatographic logP,[2],5.47
Cc1c(C(=O)N[C@H]2CCc3ccccc32)cnc2c(-c3ccccc3Cl)c(C(F)(F)F)nn12 [Example 81],EC50,[1],398 nM
same,chromatographic logP,[2],4.24
CC(C)c1c(C(=O)N[C@H]2CCc3ccccc32)cnc2c(-c3ccccc3Cl)c(C(F)(F)F)nn12 [Example 88],EC50,[1],79.4 nM
same,chromatographic logP,[2],4.96
CC(C)c1c(C(=O)N[C@H]2CCCc3ccccc32)cnc2c(-c3ccccc3Cl)c(C(F)(F)F)nn12 [Example 89],EC50,[1],631 nM
same,chromatographic logP,[2],5.24
CC(C)c1c(C(=O)N[C@H]2CCc3ccccc32)cnc2c(-c3cccc(C(F)(F)F)c3)c(C(F)(F)F)nn12 [Example 91],EC50,[1],63.1 nM
same,chromatographic logP,[2],5.51
Cc1nn2c(C(C)C)c(C(=O)N[C@H]3CCOc4ccc(Cl)cc43)cnc2c1-c1ccccc1F [Example 93],pE50,[1],7
same,logP (Method L0) [a],[2],4.67
Cc1nn2c(C(C)C)c(C(=O)N[C@H]3CCOc4ccc(Cl)cc43)cnc2c1-c1c(F)cccc1F [Example 97],pE50,[1],7.2
same,logP (Method L0) [a],[2],4.61
Cc1nn2c(C(C)C)c(C(=O)N[C@H]3CCOc4ccc(Cl)cc43)cnc2c1-c1ccc(F)c(F)c1 [Example 101],pE50,[1],6.6
same,logP (Method L0) [a],[2],5.03
CC(C)c1c(C(=O)N[C@H]2CCc3ccccc32)cnc2c(-c3cnc(F)c(F)c3)c(C(F)(F)F)nn12 [Example 163],logP (Method L0) [a],[2],4.76
CC(C)c1c(C(=O)N[C@H]2CCc3ccccc32)cnc2c(-c3ccc(Cl)nc3)c(C(F)(F)F)nn12 [Example 164],logP (Method L0) [a],[2],4.7
CC(C)Sc1nn2c(C(C)C)c(C(=O)N[C@H]3CCOc4ccccc43)cnc2c1-c1cc(Cl)cc(Cl)c1 [Example 198],log P,[2],7
CC(C)Sc1nn2c(C(C)C)c(C(=O)N[C@H]3CCc4ccccc43)cnc2c1-c1cc(Cl)cc(Cl)c1 [Example 199],log P,[2],7.34
CCSc1nn2c(C(C)C)c(C(=O)N[C@H]3CCOc4ccccc43)cnc2c1-c1cc(Cl)cc(Cl)c1 [Example 200],log P,[2],6.71
CCSc1nn2c(C(C)C)c(C(=O)N[C@H]3CCc4ccccc43)cnc2c1-c1cc(Cl)cc(Cl)c1 [Example 201],log P,[2],6.93
CC(C)c1c(C(=O)N[C@H]2CCc3ccccc32)cnc2c(-c3cc(Cl)cc(Cl)c3)c(S(=O)(=O)C(C)C)nn12 [Example 214],log P,[2],4.85
Cc1nn2c(C(C)C)c(C(=O)N[C@H]3CCOc4ccccc43)cnc2c1-c1ccc2c(c1)CCC2=O [Example 250],log P,[2],3.75
Cc1nc2c(-c3cc(Cl)cc(Cl)c3)c(C)nn2c(C)c1C(=O)N[C@H]1CCOc2ccccc21 [Example 268],log P,[2],4.76
Cc1nn2c(C(F)(F)F)c(C(=O)N[C@H]3CCc4ccccc43)cnc2c1-c1c(F)cccc1F [Example 410],log P,[2]; [3],4.16
CC(C)c1c(C(=O)N[C@H]2CCc3ccccc32)cnc2c(-c3cccc(Cl)c3)c(C3CC3)nn12 [Example 411],log P,[2]; [3],5.87
Cc1nn2c(C(F)(F)F)c(C(=O)N[C@H]3CCc4ccccc43)cnc2c1-c1ccccc1Cl [Example 412],log P,[2]; [3],4.43
CC(C)c1c(C(=O)N[C@H]2CCc3ccccc32)cnc2c(-c3ccccc3Cl)c(C3CC3)nn12 [Example 414],log P,[2]; [3],5.87
CC(C)c1c(C(=O)N[C@H]2CCc3ccccc32)cnc2c(-c3cccc(C(F)(F)F)c3)c(C3CC3)nn12 [Example 415],log P,[2]; [3],5.94
CC(C)c1c(C(=O)N[C@H]2CCc3ccccc32)cnc2c(-c3cccc(F)c3)c(C3CC3)nn12 [Example 416],log P,[2]; [3],5.41
Cc1nn2c(C(C)C)c(C(=O)N[C@H]3CCc4ccccc43)cnc2c1-n1cccn1 [Example 426],log P,[2]; [3],3.29
COc1c(C(=O)N[C@H]2CCc3ccccc32)cnc2c(-c3c(F)cccc3Cl)c(C)nn12 [Example 513],log P,[2]; [3],2.96
COc1c(C(=O)N[C@H]2CCOc3ccccc32)cnc2c(-c3c(F)cccc3Cl)c(C)nn12 [Example 514],log P,[2]; [3],4.93
COc1c(C(=O)N[C@H]2CCOc3ccccc32)cnc2c(-c3cc(Cl)cc(Cl)c3F)c(C)nn12 [Example 515],log P,[2]; [3],3.17
COc1c(C(=O)N[C@H]2CCOc3ccccc32)cnc2c(-c3ccc(F)c(F)c3)c(C)nn12 [Example 519],log P,[2]; [3],2.88
COc1c(C(=O)N[C@H]2CCOc3ccccc32)cnc2c(-c3cc(Cl)cc(Cl)c3)c(C)nn12 [Example 521],log P,[2]; [3],3.56
Cc1nn2c(C3CC3)c(C(=O)N[C@H]3CCOc4ccccc43)cnc2c1-c1ccnc(N2CCOCC2)c1 [Example 526],log P,[2]; [3],1.53
Cc1nn2c(C(C)C)c(C(=O)N[C@H]3CCc4ccccc43)cnc2c1-c1ccc(C#N)cc1 [Examples 301],log P,[2],4.28
Cc1nn2c(C(C)C)c(C(=O)N[C@H]3CCc4ccccc43)cnc2c1-c1cn[nH]c1 [Examples 307],log P,[2],2.75
CC(=O)Nc1ccc(-c2c(C)nn3c(C(C)C)c(C(=O)N[C@H]4CCc5ccccc54)cnc23)cc1 [Examples 327],log P,[2],3.24
Cc1nn2c(C(C)C)c(C(=O)N[C@H]3CCc4ccccc43)cnc2c1-c1ccc(NS(C)(=O)=O)cc1 [Examples 330],log P,[2],3.38
Cc1nn2c(C(C)C)c(C(=O)N[C@H]3CCc4ccccc43)cnc2c1-c1ccc(OCC(F)(F)F)cc1 [Examples 336],log P,[2],4.91
COCc1cccc(-c2c(C)nn3c(C(F)(F)F)c(C(=O)N[C@H]4CCc5ccccc54)cnc23)c1 [Examples 371],log P,[2],4.32
Cc1nn2c(C(F)(F)F)c(C(=O)N[C@H]3CCc4ccccc43)cnc2c1-c1cccc(Cl)c1 [Examples 382],log P,[2],4.97
Cc1nn2c(C(F)(F)F)c(C(=O)N[C@H]3CCc4ccccc43)cnc2c1-c1cccc(OC(F)(F)F)c1 [Examples 383],log P,[2],5.21
Cc1nn2c(C(F)(F)F)c(C(=O)N[C@H]3CCc4ccccc43)cnc2c1-c1cccc(C(F)(F)F)c1 [Examples 384],log P,[2],5.04
Cc1nn2c(C(F)(F)F)c(C(=O)N[C@H]3CCc4ccccc43)cnc2c1-c1cccc(N(C)C)c1 [Examples 385],log P,[2],4.1
COc1cccc(-c2c(C)nn3c(C(F)(F)F)c(C(=O)N[C@H]4CCc5ccccc54)cnc23)c1 [Examples 386],log P,[2],4.34
Cc1nn2c(C(F)(F)F)c(C(=O)N[C@H]3CCc4ccccc43)cnc2c1-c1cccc(F)c1 [Examples 387],log P,[2],4.53
Cc1nn2c(C(C)C)c(C(=O)N[C@H]3CCc4ccccc43)cnc2c1-c1cnn(CCN2CCOCC2)c1 [Examples 397],log P,[2]; [3],1.81
Cc1nn2c(C(C)C)c(C(=O)N[C@H]3CCc4ccccc43)cnc2c1-c1cnn(CCN(C)C)c1 [Examples 404],log P,[2]; [3],1.75
CC(C)c1c(C(=O)N[C@H]2CCc3ccccc32)cnc2c(-c3cccc(OC(F)(F)F)c3)c(C3CC3)nn12 [Examples 406],log P,[2]; [3],6.11
COCc1cccc(-c2c(C3CC3)nn3c(C(C)C)c(C(=O)N[C@H]4CCc5ccccc54)cnc23)c1 [Examples 409],log P,[2]; [3],5.13
